Experimental data taken from patent publication US20090104126A1, “Sulfamate Compounds and Uses Thereof” (Solvay Pharmaceuticals GmbH, priority 2007, published 2009).
Like-named read-outs stand apart in the source and are kept apart here. Marks after values point to notes of the source that are not given here.

Assays:
[1] = molecular target: T1, recombinant human carbonic anhydrase isoenzyme VB (Homo sapiens, UniProt Q9Y2D0); assay: In vitro inhibition of human carbonic anhydrase isoenzyme VB (dansylamide fluorescence); type: biochemical; details: final compound concentration 10 μM
T1 construct: purchased R&D Systems
T1 sequence (Q9Y2D0 34-317): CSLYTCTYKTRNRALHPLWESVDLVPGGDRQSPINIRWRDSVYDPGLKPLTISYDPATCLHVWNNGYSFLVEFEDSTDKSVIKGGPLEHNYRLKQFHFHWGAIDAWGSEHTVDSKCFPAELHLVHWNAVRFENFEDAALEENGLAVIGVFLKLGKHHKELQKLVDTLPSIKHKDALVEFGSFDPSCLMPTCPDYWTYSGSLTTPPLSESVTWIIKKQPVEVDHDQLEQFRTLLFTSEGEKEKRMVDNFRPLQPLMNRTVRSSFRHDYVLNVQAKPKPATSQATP
Procedure: (§1) The test compounds of general Formula I in 96 well microplates were diluted with aqua bidest by using an automatic pipettor (CyBiWell®). From the different dilution plates, aliquots of 20 μl were transferred to the 96 well black assay plates with a pipetting station (Tecan Genesis®). In a second step, 148 μl of potassium phosphate buffer (20 mM, pH 7.4) was added, and as a third step, 20 μl of enzyme solution (1 μM human carbonic anhydrase isoenzyme I from erythrocytes (Sigma-Aldrich) or human carbonic anhydrase II from erythrocytes (Sigma Aldrich), or recombinant human carbonic anhydrase isoenzyme VB (R&D Systems), dissolved in potassium phosphate buffer) incubated for 60 min at room temperature and the fluorescence signal (Tecan Ultra® fluorescence reader; excitation wavelength: 280 nm; emission wavelength: 465 nm) read at the end of the preincubation period (FLU-1). After the preincubation time, 20 μl of aqueous dansylamide solution (1 mM dansylamide (Sigma-Aldrich), dissolved in hydrochloric acid) were added and the fluorescence signal read every 10 min for a period of 60 min at 37° C. For calculation, the fluorescence data of the time point 60 min (FLU-2) were used. The total volume of assay mixture amounted to 208 μl. […] Each microplate also contained blanks without compound and enzyme, controls without compound and ethoxzolamide (final concentration 5×10^-[…]) as validation standard compound. All data reflect single measurements. Data were expressed as % inhibition after calculation by the formula: [formula] […] Concentration action figures were calculated by applying the Prism algorithm for nonlinear regression (curve-fit): sigmoidal dose response with variable slope and the constraints: top: 100 and bottom 0.

[2] = molecular target: T2, human carbonic anhydrase II from erythrocytes (Homo sapiens, UniProt P00918); assay: In vitro inhibition of human carbonic anhydrase II (dansylamide fluorescence); type: biochemical
T2 construct: human carbonic anhydrase II from erythrocytes (Sigma Aldrich); purchased Sigma Aldrich; host or cells: human erythrocytes
Procedure: as §1

[3] = molecular target: T3, human carbonic anhydrase isoenzyme I from erythrocytes (Homo sapiens, UniProt P00915); assay: In vitro inhibition of human carbonic anhydrase isoenzyme I (dansylamide fluorescence); type: biochemical
T3 construct: human carbonic anhydrase isoenzyme I from erythrocytes (Sigma-Aldrich); purchased Sigma-Aldrich; host or cells: human erythrocytes
T3 sequence (P00915 whole entry): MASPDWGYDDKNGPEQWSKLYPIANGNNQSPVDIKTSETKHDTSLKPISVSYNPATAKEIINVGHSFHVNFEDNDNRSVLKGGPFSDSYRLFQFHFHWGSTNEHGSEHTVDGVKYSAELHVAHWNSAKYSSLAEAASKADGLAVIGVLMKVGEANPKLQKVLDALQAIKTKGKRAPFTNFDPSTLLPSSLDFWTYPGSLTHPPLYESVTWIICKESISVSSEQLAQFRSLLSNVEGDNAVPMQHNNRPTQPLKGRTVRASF
Procedure: as §1

[4] = system: STZ-diabetic male Sprague Dawley rats; assay: Diabetic-induced neuropathic pain: cold bath test (cold allodynia) in STZ rats; type: in vivo, rat; details: day 10
[5] = system: embyronal hippocampal neurons; assay: Effect on neurite outgrowth from hippocampal neurons; type: cell-based, rat; details: for neurite mean length (% of control): 3 days exposure, two cultures normalized
Procedure: Neurite outgrowth is an important parameter to evaluate the neurotrophic potency of a compound. […] The hippocampal neurons from pregnant Wistar female rats were dissociated by trypsinization for 30 min at 37° C. (trypsin-EDTA, Gibco) in presence of DNAse I (Roche, Meylan). The reaction was stopped by addition of medium of Eagle modified by Dulbecco (DMEM; Gibco) with 10% of fetal bovine serum (Gibco). The suspension was triturated with a 10-ml pipette and using a 21G needle syringe and centrifuged at 350×g for 10 min at room temperature. The resulting pellet was re-suspended in culture medium containing Neurobasal medium (Gibco) with 2% of B27 supplement (Gibco) and 2 mM of glutamine (Gibco). Viable cells were counted in a Neubauer cytometer using the trypan blue exclusion test (Sigma) and seeded on the basis of 30 000 cells per Petri dish (Nunc) precoated with poly-L-lysine (Sigma). Cells were allowed to adhere 2 h and maintained in a humidified incubator at 37° C. in 5% CO2-95% air atmosphere.
After adhesion, vehicle and test compound at different concentrations (1 μM, 3 μM, 10 μM and 30 μM) were added to the medium. BDNF (50 ng/ml, 3.7 nM) was included as positive control for neurite growth. The test compound was tested in two independent cultures in parallel with control and BNDF cultures.
After the 3 days exposure of the neurons to the test compounds, cultures were washed in phosphate-buffered saline (PBS, Gibco) and fixed using 2.5% glutaraldehyde in PBS. Several pictures (˜80) of cells with neurites without any branching were taken per condition using a digital camera (Coolpix 995; Nikon) fixed on the microscope (Nikon, objective 40×). Neurites were outlined on computer screen using imaging software (Image-Pro Plus, France), which automatically calculates the length.

mouse = details: for number of deaths after ECS: 20 mice per group, vehicle 1; for ECS intensity administered, mean ± s.e.m.: vehicle 36.5 ± 1.0
Procedure: The method, which detects pro-convulsant or anti-convulsant activity, follows that described by Swinyard et al. (J. Pharmacol. Exp. Ther. 1952, 106, 319-330). Mice were administered ECS (rectangular current, 0.4 s, 50 Hz) via corneal electrodes connected to a constant current shock generator (Ugo Basile: Type 7801).
A group wherein the vehicle is administered orally 60 minutes before the ECS serves a control. Diazepam (8 mg/kg p.o.), administered under the same experimental conditions, served as a positive anti-convulsive reference substance.
If there were also no convulsions in animal no 2, then the current was further increase in the following animals (increases of 10 mA) until the first tonic convulsion was observed. Once the first tonic convulsion was observed, the intensity of ECS was decreased by 5 mA for the next animal and then the intensity was decreased or increased by 5 mA from animal to animal depending on whether or the previous animal convulsed or not. The minimum intensity given was 25 mA and the maximum intensity given was 95 mA. The electroconvulsive shock threshold was determined as the mean current administered in the last 20 mice.
The number of deaths is also recorded approximately 30 minutes after the animal has been tested for convulsions. The test was performed blind. A positive percent change indicates an anticonvulsant effect. A negative percent change indicates a proconvulsant effect.
Quantitative data were analyzed by comparing treated groups with vehicle control using unpaired Student's t tests. Quantal data were analyzed by comparing treated groups with vehicle control using Fisher's Exact Probability tests.

male C57BI/6 mice = assay: Acute in vivo food intake test in mice; details: high caloric diet, 50 mg/kg/day oral gavage twice daily for 3 days, day 3
Procedure: The studies were carried out in male C57BI/6 mice (n=12 per group). The mice were kept on an inverted 12/12 h light/dark cycle (lights on 22:00). They were allowed food (high caloric diet) and water ad libitum. Food intake and water consumption was measured daily. The test compound of general Formula I was suspended in 1% methyl hydroxyethyl cellulose in water and 0.1% (v/v) of poloxamer 188 and administered by oral gavage at a dose of 50 mg/kg/day twice daily for 3 days. One half of the dose was administered at 8.00-10.00 h; the remaining half of the dose was administered between 14.00-15.00 h.

[6] = system: STZ-diabetic male Sprague Dawley rats; assay: Diabetic-induced neuropathic pain: warm plate (38° C.) test (warm allodynia) in STZ rats; type: in vivo, rat; details: day 10
[7] = system: embyronal hippocampal neurons; assay: Effect on neurite outgrowth from hippocampal neurons; type: cell-based, rat; details: BDNF 1.85 nM (positive control), 3 days exposure
[8] = final compound concentration 0.1 μM
[9] = final compound concentration 1 μM

CC1(C)[C@H]2CC[C@@H](CCOS(N)(=O)=O)[C@@H]1C2 [Compound 3, [(1S,2S,5S)-6,6-dimethylbicyclo[3.1.1]hept-2-yl]ethyl-sulfamate]
% Inhibition [1]: 55% | % Inhibition [2, 8]: 15% | % Inhibition [3, 8]: 28%

(1R,4S)-bicyclo[2.2.1]hept-2-yl-methylsulfamate [Compound 5]
% Inhibition [1]: 41% | % Inhibition [2, 9]: 77% | % Inhibition [3, 9]: 91%

(4S)-bicyclo[2.2.1]hept-5-en-2-ylmethylsulfamate [Compound 6]
% Inhibition [1]: 40% | % Inhibition [2, 9]: 76% | % Inhibition [3, 9]: 94%

CC1(C)[C@H]2CC[C@@H](COS(N)(=O)=O)[C@@H]1C2 [Compound 4, [(1S,2R,5S)-6,6-dimethylbicyclo[3.1.1]hept-2-yl]methylsulfamate]
% Inhibition [1]: 53% | % Inhibition [2, 9]: 72% | % Inhibition [3, 9]: 80%

CC1(C)[C@@H]2CC[C@@H](COS(N)(=O)=O)[C@H]1C2 [Compound 2, [(1R,2R,5R)-6,6-dimethylbicyclo[3.1.1]hept-2-yl]methyl-sulfamate]
inhibition at 10 µM [1]: 75% | inhibition at 0.1 µM [2, 8]: 33% | inhibition at 0.1 µM [3, 8]: 70%

CC1(C)[C@H]2CC[C@H](COS(N)(=O)=O)[C@@H]1C2 [Compound 1, [(1S,2S,5S)-6,6-dimethylbicyclo[3.1.1]hept-2-yl]methyl-sulfamate]
% inhibition (compared to STZ/vehicle group), cold bath test ([4]; 10 mg/kg p.o. 1 h before test): 62* % | % inhibition (compared to STZ/vehicle group), cold bath test ([4]; 30 mg/kg p.o. 1 h before test): 58* % | % inhibition (compared to STZ/vehicle group), cold bath test ([4]; 50 mg/kg p.o. 1 h before test): 72* % | neurite mean length (% of control) ([5]; 1 μM): 110.9 % of control | neurite mean length (% of control) ([5]; 3 μM): 108.9 % of control | neurite mean length (% of control) ([5]; 10 μM): 113.2 % of control | neurite mean length (% of control) ([5]; 30 μM): 114.5 % of control | number of deaths after ECS (mouse; 10 mg/kg p.o. −60 min): 2 | ECS intensity administered, mean ± s.e.m. (mouse; 10 mg/kg p.o. −60 min): 40.0 ± 1.2 mA | number of deaths after ECS (mouse; 30 mg/kg p.o. −60 min): 0 | ECS intensity administered, mean ± s.e.m. (mouse; 30 mg/kg p.o. −60 min): 43.5 ± 1.5 mA | number of deaths after ECS (mouse; 100 mg/kg p.o. −60 min): 1 | ECS intensity administered, mean ± s.e.m. (mouse; 100 mg/kg p.o. −60 min): 88.0 ± 2.1 mA | food intake [% of control] (male C57BI/6 mice): 69.4% (day 3) % of control | inhibition at 10 µM [1]: 70% | % inhibition (compared to STZ/vehicle group), warm plate test ([6]; 10 mg/kg p.o. 1 h before test): 53% | % inhibition (compared to STZ/vehicle group), warm plate test ([6]; 30 mg/kg p.o. 1 h before test): 59* % | % inhibition (compared to STZ/vehicle group), warm plate test ([6]; 50 mg/kg p.o. 1 h before test): 64* % | inhibition at 0.1 µM [2, 8]: 56% | inhibition at 0.1 µM [3, 8]: 85%

CN1C(=O)CN=C(c2ccccc2)c2cc(Cl)ccc21 [Diazepam, reference compound]
ECS intensity % change from control (mouse; 8 mg/kg p.o. −60 min): +124% | number of deaths after ECS (mouse; 8 mg/kg p.o. −60 min): 0 | ECS intensity administered, mean ± s.e.m. (mouse; 8 mg/kg p.o. −60 min): 81.8 ± 3.0 mA

B1: BDNF: BDNF (50 ng/ml, 3.7 nM) was included as positive control for neurite growth (protein, UniProt P23560 19-247, looked up)
Neurotrophic factor BDNF …: APMKEANIRGQGGLAYPGVRTHGTLESVNGPKAGSRGLTSLADTFEHVIEELLDEDQKVRPNEENNKDADLYTSRVMLSSQVPLEPPLLFLLEEYKNYLDAANMSMRVRRHSDPARRGELSVCDSISEWVTAADKKTAVDMSGGTVTVLEKVPVSKGQLKQYFYETKCNPMGYTKEGCRGIDKRHWNSQCRTTQSYVRALTMDSKKRIGWRFIRIDTSCVCTLTIKRGR
neurite mean length (% of control) [7]: 116.4 % of control | increase in neurite length normalized by mean control neurite length ([5]; 50 ng/ml BDNF, both cultures normalized): 16.4% | mean increase in neurite length ([5]; 50 ng/ml BDNF, first culture): 24.5 μm | neurite length (mean±SEM) ([5]; 50 ng/ml BDNF, first culture, n=79 (control 105.7±3.2)): 131.6±3.1 μm | mean increase in neurite length ([5]; 50 ng/ml BDNF, second culture): 8.6 μm | neurite length (mean±SEM) ([5]; 50 ng/ml BDNF, second culture, n=82 (control 109.3±3.1)): 118.7±2.8 μm
